# In US20060154932A1, “Pharmaceutical compositions and method of treating parkinson's disease” (priority 2002, published 2006):
# Legend:
# Parkinson's disease [1] = details: cited from earlier work
# Parkinson's disease [2] = experiment: Patient-reported tremor in a Parkinson's disease patient; format: in vivo, human; details: VIOXX 25 mg once a day added to Endo L-C 100-25 TID
# Method: Patient 8 (person one), an adult, was diagnosed as having Parkinson's disease. After evaluation the patient was prescribed Endo L-C 100-25, TID. Approximately three years later, the patient began taking VIOXX (25 mg) once a day. After three weeks, patient noticed that severity of tremors had decreased and the frequency between the tremors had increased. In addition, night time tremors, those associated with sleeping, had dramatically subsided (i.e. by up to 90%). Overall, the patient reports that the tremors have subsided nearly 40%.
# Parkinson's disease [3] = experiment: Unified Parkinson's Disease Rating Scale (UPDRS) Part III motor examination of a patient; format: in vivo, human; details: Patient 1
# Method: Patent 1, a person, was administered Part III (motor examination) of the Unified Parkinson's Disease Rating Scale (hereinunder abbreviated as UPDRS) and diagnosed as having Parkinson=3 s disease (scoring a 20 in the test). After a period of evaluation of drug therapy options, the patient was prescribed pergolide, 0.25 mg tid and selegiline 5 mg po. After six (6) months on drug therapy, the patient was once again examined with the UPDRS motor subset and scored 16.5. After three (3) months on the drug, 25 mg of VIOXX, once a day was added to the treatment regime. After four (4) additional months, the patient was once again administered the UPDRS, this time scoring a 6.0. After six (6) months on the VIOXX tripartite therapy, the patient was again administered the UPDRS motor examination and scored 4.0. (see Fahn S, Elton R L, Members of the UPDRS Development Committee. Unified Parkinson's disease rating scale. In: Fahn S, Marsden C D, Calne D, Goldstein M, eds. Recent developments in Parkinson=3 s disease, Vol II. Florham Park, N.J.: Macmillan Healthcare Information, 1987:153-163, 293-304): […]
smiles,measurement,setting,value
"C#CCN(C)[C@H](C)Cc1ccccc1 [Selegiline, selegiline]",delay of the initiation of levodopa,Parkinson's disease [1]; used as initial treatment,about 1 yr
"NC12CC3CC(CC(C3)C1)C2 [Amantadine, amantadine]","patients for whom useful in treating early, mild parkinsonism",Parkinson's disease [1]; 100 to 300 mg/day po,50%
N[C@@H](Cc1ccc(O)c(O)c1)C(=O)O [levodopa],patients beginning to experience fluctuations in their response (wearing off or on-off effect),Parkinson's disease [1]; after 2 to 5 yr of treatment,> 50%
"CS(=O)(=O)c1ccc(C2=C(c3ccccc3)C(=O)OC2)cc1 [VIOXX, rofecoxib]",severity of tremors,"Parkinson's disease [2]; Patient 8 (person one), after three weeks",decreased
same,night time tremors (associated with sleeping) subsided,Parkinson's disease [2]; Patient 8,up to 90%
same,tremors subsided overall (patient report),Parkinson's disease [2]; Patient 8,~40%
same,frequency between the tremors,"Parkinson's disease [2]; Patient 8, after three weeks",increased
same,UPDRS score,"Parkinson's disease [3]; 25 mg VIOXX once a day added to pergolide and selegiline, after four additional months",6.0
same,UPDRS motor examination score,"Parkinson's disease [3]; after six months on the VIOXX tripartite therapy (VIOXX 25 mg once a day, pergolide, selegiline)",4.0
